Data taken from patent US20110245323A1, “RIG-Like Helicase Innate Immunity Inhibits VEGF-Induced Tissue Responses” (Yale University, priority 2006, published 2011).

Assays:
[1] = tested on: CC10-rtTA-VEGF165 transgenic mice; assay: BAL inflammatory cell recovery, VEGF-induced inflammation; assay type: in vivo, mouse; conditions: for Total cells (×10^4): VEGF-induced tissue responses, TLR agonist administration, PBS control 50
Procedure: (§1) The CC10-rtTA-VEGF165 transgenic mice used in this study were generated and used as described previously (Lee et al., 2004, Nature Medicine 10:1095-103), which reference is incorporated herein in its entirety. These animals were housed under barrier conditions in the animal facility at Yale University School of Medicine. In these experiments 6-8 week old transgenic (Tg+) animals and their transgene negative littermate controls (Tg−) were randomized to receive water with doxycycline (dox) (0.5 mg/ml) or normal water. Two weeks later they were sacrificed and the VEGF-induced phenotype was evaluated as described below (Lee et al., 2004, Nature Medicine 10:1095-103).
(§2) To define the effects of these agents on the tissue responses induced by VEGF, two experimental procedures were used. In the first, a pretreatment protocol was used. In these experiments the noted innate immunity agonist ([…] unless otherwise indicated) or its vehicle control (PBS) were administered intranasally and aspirated into the lungs of randomized Tg+ and Tg− mice starting one day before the Dox water treatment. The doses were administered to the mice every other day during the 2 week doxyxycline (dox) treatment interval.
(§3) To determine if the innate immunity agonists altered established VEGF-induced tissue responses, a “post treatment” protocol was used in selected experiments. In these experiments the innate immunity agonist was administered 2 days or 14 days after the doxycycline and VEGF-induced responses were evaluated 2 weeks later.
(§4) To define the effects of Poly(I:C) a number of protocols were employed. In most experiments, a pretreatment-2 week protocol was employed. In these experiments, WT and Tg+ mice were treated with Poly(I:C) (30 μg in 50 lambda unless otherwise indicated; Amersham Biosciences, N.J.) or vehicle control via nasal aspiration and transgene activation was accomplished via the administration of dox (0.5 mg/ml) in the animal's drinking water 24 hours later. The Poly(I:C) was administered every other day and the dox was administered continuously for up to 2 weeks.
(§5) Lastly, in selected experiments post-transgene activation protocols were employed. In these experiments dox was administered for 2 days or 2 weeks. The Poly(I:C) was then administered via intranasal aspiration every other day for 2 weeks as disclosed elsewhere herein. In selected pre-treatment and post-transgene activation experiments, unmethylated CpG (CpG-B) (Keck Center, Yale University) was also employed at similar doses. At the end of these intervals, assessments of angiogenesis (anti-CD31 immunohistochemistry), vascular permeability (Evan's blue dye extravasation, wet to dry lung weight measurements, BAL protein concentration), BAL and tissue inflammatory cell infiltration and mucus metaplasia (periodic acid-Schiff (PAS) staining, MUC5AC immunoblotting) were undertaken. In all cases experiments were designed to compare Tg− and Tg+ mice on normal water and Tg− and Tg+ mice on dox water.
(§6) Mice were sacrificed using intraperitoneal ketamine/xylazine injection and the trachea was cannulated and perfused with two 0.9 nil aliquots of cold saline. The cellular contents and BAL fluid were separated by centrifugation, the BAL cell number was quantitated and cell differential was assessed. The BAL fluid was stored in aliquots at −80° C.

[2] = tested on: CC10-rtTA-VEGF165 transgenic mice; assay: VEGF-induced angiogenesis, anti-CD31 immunohistochemistry and vessel area density; assay type: in vivo, mouse; conditions: for Vascularity (%): VEGF-induced tissue responses, TLR agonist administration, PBS control 43
Procedure: as §1, §2, §3, §4
In selected experiments a pretreatment protocol and shorter treatment interval was employed. In these experiments, WT and Tg+ mice were treated with Poly(I:C) (30 μg/mouse/dose in 50 μl) or vehicle control via nasal aspiration and transgene activation was accomplished with dox 24 hours later. The animals were then randomized to not receive or receive one additional dose of Poly(I:C) 24 hours later and dox was administered continuously during this 2 week interval.
as §5

[3] = tested on: CC10-rtTA-VEGF165 transgenic mice; assay: VEGF-induced mucus metaplasia (PAS staining, BAL MUC5AC); assay type: in vivo, mouse; conditions: Tg+ mice, pretreatment, vs vehicle
Procedure: as §4, §5
(§7) The lungs were removed en bloc as described elsewhere herein, inflated at 25 cm pressure with PBS containing 0.5% low melting point agarose gel, fixed in Streck solution (Streck Laboratories, La Vista, Nebr.), embedded in paraffin, sectioned and stained. Hematoxylin and eosin and PAS stains were performed in the Research Histology Laboratory of the Department of Pathology at the Yale University School of Medicine. Pulmonary hemorrhage was evaluated by quantitating BAL red blood cell number with a Coulter counter (Beckman Coulter).
The levels of MUC5AC, the major airway mucin in BAL fluids, were assessed as previously described (Lee et al., 2008, Am J Respir Cell Mol Biol 39:739-746). In these evaluations, 0.1 ml of BAL fluid was slot blotted onto nitrocellulose membranes using a Minifold II slot blot apparatus (Schleicher & Schuell). After air-drying, the membrane was blocked with 5% skim milk, washed three times and incubated overnight at 4° C. with a monoclonal antibody against Mucin-5AC (45M1; NeoMarkers, Union City, Calif.). After washing, the membranes were incubated for 1 hour at room temperature with horseradish peroxidase-conjugated anti-mouse immunoglobulin (Ig)-G (Pierce). Immunoreactive mucins were detected using a chemiluminescent procedure (ECL Plus Western blotting detection system, Amersham Biosciences) according to instructions from the manufacturer.

[4] = tested on: CC10-rtTA-VEGF165 transgenic mice; assay: VEGF-induced pulmonary hemorrhage in BAL fluids; assay type: in vivo, mouse; conditions: Tg+ mice, pretreatment, vs vehicle
Procedure: as §1, with “10:1095-103). […]” for “10:1095-103).”
as §6, with “The BAL fluid was stored in aliquots at −80° C.” left out
as §7, with “Hematoxylin and eosin and PAS stains were performed in the Research Histology Laboratory of the Department of Pathology at the Yale University School of Medicine.” left out

human patients = conditions: cited from earlier work

## CCNCc1nc2c(N)nc3ccccc3c2n1CC(C)(C)O [Gardiquimod]
[1]; Tg+ mice, pretreatment, vs vehicle
  total recovery of inflammatory cells during BAL / VEGF-induced inflammation: decreased
[1]
  Total cells (×10^4): 29 ×10^4
[2]; Tg+ mice, pretreatment starting 1 day before dox, vs vehicle
  VEGF-induced angiogenesis (vascular density, appearance, sprouting): decreased
[2]
  Vascularity (%): 32.4%
[3]
  VEGF-induced mucus metaplasia (PAS stains, BAL MUC5AC accumulation): decreased
[4]
  VEGF-induced bleeding / hemorrhage in BAL fluids: decreased

## Lipopolysaccharide [LPS]
[1]
  Total cells (×10^4): 156 ×10^4
[2]
  Vascularity (%): 32.2%

## poly-ICLC
Human patients; 10 to 50 mcg/kg
  toxicity, lower dose: little or no toxicity
Human patients; 200-300 mcg/kg IV
  toxicity and efficacy in human patients, high doses: toxic and largely ineffectual
